In ChEMBL document CHEMBL5321246, “Aurones: A Promising Scaffold to Inhibit SARS-CoV-2 Replication” (J Nat Prod, 2023):

tested on: SARS-CoV-2; test: Antiviral activity against SARS-CoV-2 B.1 lineage isolate infected in human Calu-3 cells assessed as inhibition of viral replication infected with cells for 1 hr followed by compound addition and measured 24 hrs post infection by crystal violet staining based PFU assay; assay type: functional, organism-based; conditions: Severe acute respiratory syndrome coronavirus 2, B.1, Calu-3

Structure (SMILES) | EC50 [µM]
COc1ccc(/C=C2\Oc3c(ccc(O)c3O)C2=O)cc1 | 4.6
COCOc1cc(/C=C2\Oc3ccccc3C2=O)ccc1OC | 1
COCOc1ccc2c(c1)O/C(=C\c1ccc(OC)cc1)C2=O | 0.58
COc1ccc(/C=C2\Oc3cc(OC(F)F)ccc3C2=O)cc1 | 0.9
COc1cc(/C=C2\Oc3ccccc3C2=O)cc(OC)c1OC | 5.8
COc1ccc2c(c1)O/C(=C\c1ccccc1)C2=O | 0.49
COc1ccc(/C=C2\Oc3cc4c(cc3C2=O)OCO4)cc1 | 2
COc1ccc(/C=C2\Oc3cc(OCc4ccccc4)ccc3C2=O)cc1 | 2.2
COc1ccc(/C=C2\Oc3cc(O)ccc3C2=O)cc1O | 5.6
COc1ccc2c(c1)O/C(=C\c1ccc(O)cc1)C2=O | 2.8
COCOc1ccc2c(c1)O/C(=C\c1ccc(OC)c(OCOC)c1)C2=O | 0.5
COc1ccc(/C=C2\Oc3cc(O)ccc3C2=O)cc1 | > 10
COCOc1cc(OC)ccc1/C=C1\Oc2ccccc2C1=O | 8.2
COc1ccc(/C=C2\Oc3cc(OC)ccc3C2=O)cc1 | 1.5
COCOc1ccc2c(c1)O/C(=C\c1ccc(OC)cc1OCOC)C2=O | 0.35
COc1ccc(/C=C2\Oc3cc(OCc4ccc(F)cc4)ccc3C2=O)cc1 | 2.9
COCOc1cc(/C=C2\Oc3cc(OC)ccc3C2=O)ccc1OC | 2.3

tested on: SARS-CoV-2; test: Antiviral activity against SARS-CoV-2 B.1 lineage isolate infected in human Calu-3 cells assessed as inhibition of viral replication at 10 uM infected with cells for 1 hr followed by compound addition and measured 24 hrs post infection by crystal violet staining based PFU assay relative to control; assay type: functional; conditions: Severe acute respiratory syndrome coronavirus 2, B.1, Calu-3

Structure (SMILES) | inhibition at 10 µM [%]
COc1ccc(/C=C2\Oc3c(ccc(O)c3O)C2=O)cc1 | 62.2
COCOc1cc(/C=C2\Oc3ccccc3C2=O)ccc1OC | 97.6
COCOc1ccc2c(c1)O/C(=C\c1ccc(OC)cc1)C2=O | 98
COc1ccc(/C=C2\Oc3cc(OC(F)F)ccc3C2=O)cc1 | 97.1
O=C1/C(=C/c2ccc3c(c2)OCO3)Oc2ccccc21 | 44.6
COc1cc(/C=C2\Oc3ccccc3C2=O)cc(OC)c1OC | 66.4
COc1ccc2c(c1)O/C(=C\c1ccccc1)C2=O | 99.7
COc1ccc(/C=C2\Oc3cc4c(cc3C2=O)OCO4)cc1 | 95.8
COc1ccc(/C=C2\Oc3cc(OCc4ccccc4)ccc3C2=O)cc1 | 91
COc1ccc(/C=C2\Oc3cc(O)ccc3C2=O)cc1O | 24.4
COc1ccc2c(c1)O/C(=C\c1ccc(O)cc1)C2=O | 88.3
COCOc1ccc2c(c1)O/C(=C\c1ccc(OC)c(OCOC)c1)C2=O | 95.4
COc1ccc(/C=C2\Oc3cc(O)ccc3C2=O)cc1 | 24
COCOc1cc(OC)ccc1/C=C1\Oc2ccccc2C1=O | 58.3
COc1ccc(/C=C2\Oc3cc(OC)ccc3C2=O)cc1 | 94.8
COCOc1ccc2c(c1)O/C(=C\c1ccc(OC)cc1OCOC)C2=O | 96.2
COc1ccc(/C=C2\Oc3cc(OCc4ccc(F)cc4)ccc3C2=O)cc1 | 85.2
COCOc1cc(/C=C2\Oc3cc(OC)ccc3C2=O)ccc1OC | 88.2

tested on: SARS-CoV-2; test: Antiviral activity against SARS-CoV-2 B.1 lineage isolate infected in human Calu-3 cells assessed as inhibition of viral replication at 1 uM infected with cells for 1 hr followed by compound addition and measured 24 hrs post infection by crystal violet staining based PFU assay relative to control; assay type: functional; conditions: Severe acute respiratory syndrome coronavirus 2, B.1, Calu-3

Structure (SMILES) | inhibition at 1 µM [%]
COc1ccc(/C=C2\Oc3c(ccc(O)c3O)C2=O)cc1 | 25.9
COCOc1cc(/C=C2\Oc3ccccc3C2=O)ccc1OC | 60.3
COCOc1ccc2c(c1)O/C(=C\c1ccc(OC)cc1)C2=O | 77.6
COc1ccc(/C=C2\Oc3cc(OC(F)F)ccc3C2=O)cc1 | 69.9
O=C1/C(=C/c2ccc3c(c2)OCO3)Oc2ccccc21 | 69.5
COc1ccc2c(c1)O/C(=C\c1ccccc1)C2=O | 59.1
COc1ccc(/C=C2\Oc3cc4c(cc3C2=O)OCO4)cc1 | 32.5
COc1ccc(/C=C2\Oc3cc(OCc4ccccc4)ccc3C2=O)cc1 | 36.1
COc1ccc(/C=C2\Oc3cc(O)ccc3C2=O)cc1O | 70.4
COc1ccc2c(c1)O/C(=C\c1ccc(O)cc1)C2=O | 25
COCOc1ccc2c(c1)O/C(=C\c1ccc(OC)c(OCOC)c1)C2=O | 77
COc1ccc(/C=C2\Oc3cc(OC)ccc3C2=O)cc1 | 46.5
COCOc1ccc2c(c1)O/C(=C\c1ccc(OC)cc1OCOC)C2=O | 82.5
COc1ccc(/C=C2\Oc3cc(OCc4ccc(F)cc4)ccc3C2=O)cc1 | 14.5
COCOc1cc(/C=C2\Oc3cc(OC)ccc3C2=O)ccc1OC | 34.1

tested on: not listed separately; test: Cytotoxicity against human Calu-3 cells assessed as reduction in cell viability incubated for 72 hrs by methylene blue assay; assay type: toxicity, cell-based; conditions: not given

Structure (SMILES) | CC50 at 72 h [µM]
COc1ccc(/C=C2\Oc3c(ccc(O)c3O)C2=O)cc1 | > 300
COCOc1cc(/C=C2\Oc3ccccc3C2=O)ccc1OC | > 300
COCOc1ccc2c(c1)O/C(=C\c1ccc(OC)cc1)C2=O | > 1000
COc1ccc(/C=C2\Oc3cc(OC(F)F)ccc3C2=O)cc1 | > 300
COc1cc(/C=C2\Oc3ccccc3C2=O)cc(OC)c1OC | > 250
COc1ccc2c(c1)O/C(=C\c1ccccc1)C2=O | > 1000
COc1ccc(/C=C2\Oc3cc4c(cc3C2=O)OCO4)cc1 | > 1000
COc1ccc(/C=C2\Oc3cc(OCc4ccccc4)ccc3C2=O)cc1 | > 300
COc1ccc(/C=C2\Oc3cc(O)ccc3C2=O)cc1O | > 250
COc1ccc2c(c1)O/C(=C\c1ccc(O)cc1)C2=O | > 300
COCOc1ccc2c(c1)O/C(=C\c1ccc(OC)c(OCOC)c1)C2=O | 817
COc1ccc(/C=C2\Oc3cc(O)ccc3C2=O)cc1 | > 250
COCOc1cc(OC)ccc1/C=C1\Oc2ccccc2C1=O | > 250
COc1ccc(/C=C2\Oc3cc(OC)ccc3C2=O)cc1 | > 300
COCOc1ccc2c(c1)O/C(=C\c1ccc(OC)cc1OCOC)C2=O | 976
COc1ccc(/C=C2\Oc3cc(OCc4ccc(F)cc4)ccc3C2=O)cc1 | > 300
COCOc1cc(/C=C2\Oc3cc(OC)ccc3C2=O)ccc1OC | > 1000

tested on: not listed separately; test: Selectivity index, ratio of CC50 for cytotoxicity against human Calu-3 cells to EC50 for antiviral activity against SARS-CoV-2 B.1 lineage isolate infected in human Calu-3 cells; assay type: toxicity, cell-based; conditions: read-out: Ratio CC50/EC50

Structure (SMILES) | selectivity ratio
COc1ccc(/C=C2\Oc3c(ccc(O)c3O)C2=O)cc1 | > 65.2
COCOc1cc(/C=C2\Oc3ccccc3C2=O)ccc1OC | > 300
COCOc1ccc2c(c1)O/C(=C\c1ccc(OC)cc1)C2=O | > 1670
COc1ccc(/C=C2\Oc3cc(OC(F)F)ccc3C2=O)cc1 | > 333
COc1cc(/C=C2\Oc3ccccc3C2=O)cc(OC)c1OC | > 43.1
COc1ccc2c(c1)O/C(=C\c1ccccc1)C2=O | > 2000
COc1ccc(/C=C2\Oc3cc4c(cc3C2=O)OCO4)cc1 | > 500
COc1ccc(/C=C2\Oc3cc(OCc4ccccc4)ccc3C2=O)cc1 | > 136
COc1ccc(/C=C2\Oc3cc(O)ccc3C2=O)cc1O | > 44.6
COc1ccc2c(c1)O/C(=C\c1ccc(O)cc1)C2=O | > 107
COCOc1ccc2c(c1)O/C(=C\c1ccc(OC)c(OCOC)c1)C2=O | 1630
COCOc1cc(OC)ccc1/C=C1\Oc2ccccc2C1=O | > 30.5
COc1ccc(/C=C2\Oc3cc(OC)ccc3C2=O)cc1 | > 200
COCOc1ccc2c(c1)O/C(=C\c1ccc(OC)cc1OCOC)C2=O | 2440
COc1ccc(/C=C2\Oc3cc(OCc4ccc(F)cc4)ccc3C2=O)cc1 | > 104
COCOc1cc(/C=C2\Oc3cc(OC)ccc3C2=O)ccc1OC | > 435

tested on: not listed separately; test: Cytotoxicity against human Calu-3 cells assessed as cell viability at 250 uM incubated for 72 hrs by methylene blue assay relative to control; assay type: toxicity, cell-based; conditions: read-out: Activity

Structure (SMILES) | viability at 72 h, 250 µM [%]
COc1ccc(/C=C2\Oc3c(ccc(O)c3O)C2=O)cc1 | ≥ 80
COCOc1cc(/C=C2\Oc3ccccc3C2=O)ccc1OC | ≥ 80
COCOc1ccc2c(c1)O/C(=C\c1ccc(OC)cc1)C2=O | ≥ 80
COc1ccc(/C=C2\Oc3cc(OC(F)F)ccc3C2=O)cc1 | ≥ 80
O=C1/C(=C/c2ccc3c(c2)OCO3)Oc2ccccc21 | ≥ 80
COc1cc(/C=C2\Oc3ccccc3C2=O)cc(OC)c1OC | ≥ 80
COc1ccc2c(c1)O/C(=C\c1ccccc1)C2=O | ≥ 80
COc1ccc(/C=C2\Oc3cc4c(cc3C2=O)OCO4)cc1 | ≥ 80
COc1ccc(/C=C2\Oc3cc(OCc4ccccc4)ccc3C2=O)cc1 | ≥ 80
COc1ccc(/C=C2\Oc3cc(O)ccc3C2=O)cc1O | ≥ 80
COc1ccc2c(c1)O/C(=C\c1ccc(O)cc1)C2=O | ≥ 80
COCOc1ccc2c(c1)O/C(=C\c1ccc(OC)c(OCOC)c1)C2=O | ≥ 80
COc1ccc(/C=C2\Oc3cc(O)ccc3C2=O)cc1 | ≥ 80
COCOc1cc(OC)ccc1/C=C1\Oc2ccccc2C1=O | ≥ 80
COc1ccc(/C=C2\Oc3cc(OC)ccc3C2=O)cc1 | ≥ 80
COCOc1ccc2c(c1)O/C(=C\c1ccc(OC)cc1OCOC)C2=O | ≥ 80
COc1ccc(/C=C2\Oc3cc(OCc4ccc(F)cc4)ccc3C2=O)cc1 | ≥ 80
COCOc1cc(/C=C2\Oc3cc(OC)ccc3C2=O)ccc1OC | ≥ 80

tested on: SARS-CoV-2; test: Potency index, ratio of myricetin EC50 to test compound EC50 for antiviral activity against SARS-CoV-2 infected in human Calu-3 cells assessed as inhibition of viral replication; assay type: functional, Severe acute respiratory syndrome coronavirus 2; conditions: not given

Structure (SMILES) | Ratio EC50
COCOc1ccc2c(c1)O/C(=C\c1ccc(OC)cc1OCOC)C2=O | 2

tested on: SARS-CoV-2; test: Potency index, ratio of baicalein EC50 to test compound EC50 for antiviral activity against SARS-CoV-2 infected in human Calu-3 cells assessed as inhibition of viral replication; assay type: functional, Severe acute respiratory syndrome coronavirus 2; conditions: not given

Structure (SMILES) | Ratio EC50
COCOc1ccc2c(c1)O/C(=C\c1ccc(OC)cc1OCOC)C2=O | 3
